Experimental findings from patent US10183919B2 (priority 2014, dated 2019) are described below.

Where a name gives a salt, the structure may show the parent alone. Read-outs that look alike come from different tables or passages of the source. Where only a bound is given, the exact number is not on record here.

One experiment deals with T1, Human MOR (Homo sapiens, UniProt P35372).
T1 construct: expressed in transfected cells; host or cells: HEK-293T
Briefly: cell-based. The text has this:
(§1) Transfection. Human or mouse MOR cDNA was transfected alongside GαoB with RLuc8 inserted at position 91 (GαoB-RLuc8), Gβ1 (β1), and Gγ2 fused to the full-length mVenus at its N terminus (mVenus-γ2) into HEK-293T cells (5×10^6 cells/plate) in 10-cm dishes using PEI (Polysciences Inc.; Warrington, Pa.) in a 1:1 ratio diluted in Opti-MEM (Life Technologies Corp.; Grand Island, N.Y.) to assay for G protein activation as described previously (Rives, M.-L. et al. J. Biol. Chem. 2012, 287, 27050-4; Negri, A.; Rives, M.-L.; Caspers, M. J. et al. J. Chem. Inf. Model. 2013, 53, 521-526). Cells were maintained in the Dulbecco's Modified Eagle Medium (high glucose #11965; Life Technologies) supplemented with 10% FBS (Premium Select, Atlanta Biologicals; Atlanta, Ga.) and 100 U/mL penicillin and 100 μg/mL streptomycin (#15140, Life Technologies). After 24 hours the media was changed, and the experiment was performed 24 hours later (48 hours after transfection).
(§2) BRET. Transfected cells were dissociated and resuspended in phosphate-buffered saline (PBS). Approximately 200,000 cells/well were added to a black-framed, white well 96-well plate (#60050; Perkin Elmer; Waltham, Mass.). The microplate was centrifuged and the cells were resuspended in PBS. Then 5 μM of the luciferase substrate coelenterazine H was added to each well for 5 minutes. Following coelenterazine H addition, ligands were added and the BRET signal was measured at 5 minutes on a PHERAstar FS plate reader. Quantification of the BRET signal required calculating the ratio of the light emitted by the energy acceptor, mVenus (510-540 nm), over the light emitted by the energy donor, RLuc8 (485 nm). […] Dose response curves were fit using three-parameter logistics equation in GraphPad Prism 6.

The next experiment has as its target T2, Mouse MOR (Mus musculus, UniProt P42866).
T2 construct: expressed in transfected cells; host or cells: HEK-293T
Briefly: BRET G protein activation assay, HEK-293T cells transfected with mouse MOR. It counts as cell-based.
From the text: as §1, §2

[1] abbreviates: BRET G protein activation, HEK-293T, mean ± SEM of independent trials, read-out: EC50 Mouse MOR.

T2 sequence (P42866 whole entry): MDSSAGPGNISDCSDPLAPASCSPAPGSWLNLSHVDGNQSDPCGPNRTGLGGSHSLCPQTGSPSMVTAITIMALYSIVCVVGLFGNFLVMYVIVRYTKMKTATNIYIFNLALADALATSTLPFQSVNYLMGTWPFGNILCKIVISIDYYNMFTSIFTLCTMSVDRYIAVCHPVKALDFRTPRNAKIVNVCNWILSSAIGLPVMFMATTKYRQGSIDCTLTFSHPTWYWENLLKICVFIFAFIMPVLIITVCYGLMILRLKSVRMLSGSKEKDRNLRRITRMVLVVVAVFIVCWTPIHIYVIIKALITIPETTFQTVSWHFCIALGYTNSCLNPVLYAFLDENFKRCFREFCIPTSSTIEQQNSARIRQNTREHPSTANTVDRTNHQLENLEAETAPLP
T1 sequence (P35372 whole entry): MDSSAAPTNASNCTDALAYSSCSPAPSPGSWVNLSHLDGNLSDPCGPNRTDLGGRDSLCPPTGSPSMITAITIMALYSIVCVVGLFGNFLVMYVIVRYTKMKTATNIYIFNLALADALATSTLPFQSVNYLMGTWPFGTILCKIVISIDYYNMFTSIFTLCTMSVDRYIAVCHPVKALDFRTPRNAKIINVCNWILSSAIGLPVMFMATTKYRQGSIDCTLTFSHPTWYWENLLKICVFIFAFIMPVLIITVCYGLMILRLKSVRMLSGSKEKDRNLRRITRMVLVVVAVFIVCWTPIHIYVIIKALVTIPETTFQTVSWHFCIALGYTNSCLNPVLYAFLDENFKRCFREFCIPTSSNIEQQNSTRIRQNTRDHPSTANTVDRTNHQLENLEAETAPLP

Turning to `CCOC(=O)CCCCNC1c2ccccc2N(C)S(=O)(=O)c2cc(Cl)ccc21` (centres unmarked) [compound 17, Ethyl 5-((3-chloro-6-methyl-5,5-dioxido-6,11-dihydrodibenzo[c,f][1,2]thiazepin-11-yl)amino)pentanoate], the EC50 at Human MOR and on Mouse MOR was < 10 µM each time.
Consider `CN1c2ccccc2C(NCCCCC(=O)O)c2ccc(Cl)cc2S1(=O)=O` (centres unmarked) [compound 18, 5-((3-Chloro-6-methyl-5,5-dioxido-6,11-dihydrodibenzo[c,f][1,2]thiazepin-11-yl)amino)pentanoic acid], for which the concentration giving a half-maximal response (EC50) at Human MOR and at Mouse MOR was < 10 µM throughout.
As for `CCCCCNC1c2ccccc2N(C)S(=O)(=O)c2cc(Cl)ccc21` (centres unmarked) [compound 19, 3-Chloro-6-methyl-11-(pentylamino)-6,11-dihydrodibenzo [c,f][1,2]thiazepine 5,5-dioxide], the EC50 on Human MOR and on Mouse MOR (setting [1]) was < 10 µM each time.
Take `CNC1c2ccccc2N(C)S(=O)(=O)c2cc(Cl)ccc21` (centres unmarked) [compound 20, 3-Chloro-6-methyl-11-(methylamino)-6,11-dihydrodibenzo [c,f][1,2]thiazepine 5,5-dioxide]: the EC50 at Human MOR and at Mouse MOR (setting [1]) was < 10 µM throughout.
For `CCCNC1c2ccccc2N(C)S(=O)(=O)c2cc(Cl)ccc21` (centres unmarked) [compound 21, 3-Chloro-6-methyl-11-(propylamino)-6,11-dihydrodibenzo [c,f][1,2]thiazepine 5,5-dioxide], the EC50 at Human MOR and on Mouse MOR (setting [1]) was < 10 µM each time.
Regarding `CC(C)NC1c2ccccc2N(C)S(=O)(=O)c2cc(Cl)ccc21` (centres unmarked) [compound 22, 3-Chloro-11-(isopropylamino)-6-methyl-6,11-dihydrodibenzo [c,f][1,2]thiazepine 5,5-dioxide], the EC50 at Human MOR and on Mouse MOR (setting [1]) was < 10 µM throughout.
For the compound `COCCCNC1c2ccccc2N(C)S(=O)(=O)c2cc(SC)ccc21` (centres unmarked) [compound 44, 11-((3-Methoxypropyl)amino)-6-methyl-3-(methylthio)-6, 11-dihydrodibenzo[c,f][1,2]thiazepine 5,5-dioxide], the concentration for a half-maximal effect (EC50) at Human MOR and at Mouse MOR (setting [1]) was < 10 µM each time.
In the case of `CCOC(=O)CCCCCCNC1c2ccccc2N(C)S(=O)(=O)c2cc(SC)ccc21` (centres unmarked) [compound 45, Ethyl 7-((6-methyl-3-(methylthio)-5,5-dioxido-6,11-dihydrodibenzeo[c,f] [1,2] 1, 2lazepin-11-yl)amino) heptanotate], the EC50 on Human MOR and on Mouse MOR (setting [1]) was < 10 µM throughout.
Consider `CN1c2ccccc2C(NCCCCCCC(=O)O)c2ccccc2S1(=O)=O` (centres unmarked) [compound 80, 7-((6-Methyl-5,5-dioxido-6,11-dihydrodibenzo[c,f][1,2]thiazepin-11-yl)amino)heptanoic acid hydrochloride salt], for which the EC50 at Human MOR and at Mouse MOR was < 10 µM in each case.
With `CN1c2ccccc2C(NCCCCCCC(=O)O)c2ccc(Cl)cc2S1(=O)=O` (centres unmarked) [tianeptine, reference compound], the figures for the EC50 on Human MOR and on Mouse MOR were 0.194 ± 0.07 µM and 0.641 ± 0.12 µM, respectively.

A word on the EC50: it is the concentration needed to bring the measured effect to its halfway point.
